Experimental findings from patent publication US20240218019A1, “METHODS AND COMPOSITIONS COMPRISING MHC CLASS I PEPTIDES” (BOARD OF REGENTS, THE UNIVERSITY OF TEXAS SYSTEM, priority 2021, published 2024) are described below.

Entries after “also recorded” stand apart in the source; their conditions may differ.

In this assay the test system is healthy donor PBMCs. Kind of assay: IFNγ ELISpot assay with peptide-stimulated healthy donor PBMCs. The settings on record: for ELISpot IFNγ reactivity (immunogenicity) of individual peptides: compared to unexposed control cells. Format: cell-based, human. As to the method:
FIG. 10A-D. In vitro validation of predicted neoAgs immunogenicity using ELISpot IFNy assay. A) Schematic of peptide pool, stimulation, and cell culture workflow for ELISpot assays. PBMCs were exposed with the individual peptides from the immunogenic pools in the presence of IL-7 for 3 d, followed by expansion of neoAg-specific T cells in the presence of IL-2. On day 13, expanded cells (10^5 cells per well) were plated onto 96-well ELISpot plate coated with an IFNγ antibody and re-stimulated with the respective peptide for 24 h. IFNy secreting cells were analyzed as spot-forming units (SFUs), and the inventors chose ≥15 SFU produced by peptide stimulated cells over DMSO control cells as an indicator of the peptide immunogenicity. B) Quantification of IFNγ-secreting cells (SFU) obtained from ELISpot assay of 12 neoAg-stimulated PBMCs. ConcA and DMSO served as positive and negative controls. […] C) Selection of 110 predicted MHC-I neoAgs from 3 different categories and percentage of immunogenicity in vitro validation. […] “Most Immunogenic” refers to neoAgs selected from the top 100 prediction list of Most Immunogenic MHC-I neoAgs. “Most recurrent” refers to neoAgs selected from the top 100 prediction list of Most Recurrent MHC-I neoAgs. “Others” refers neoAgs that were predicted to have low immunogenicity and no recurrency. A total of 44 MHC-II neoAgs from 2 different categories were tested. […] “Most Immunogenic” refers to neoAgs selected from the top 100 prediction list of Most Immunogenic MHC-II neoAgs. “Most recurrent” refers to neoAgs selected from the top 100 prediction list of Most Recurrent MHC-II neoAgs. D) pMHC-pentamer staining. Expanded Pan-T cells from the healthy human donor were isolated and stained with WDTC1 neoAg peptide/A*02:01 Pentameric complexes and PerCP-conjugated CD8 antibody followed by flow cytometry analysis. Pan T-cells from healthy human donor PBMC (HLA-A*02:01) were isolated using negative magnetic selection. Isolated Pan T cells were stimulated and expanded with Opto-antigen presenting beads conjugated with WDTC1 neoAg-peptide. Viable Pan-T cells were gated based on FSC and SSC scatter and SYTOX Blue dead cells staining after doublet-exclusion. Flow cytometric plots representing CD8 positive (x-axis) and PE-biotin-pMHC-pentamer positive (y-axis) cells; unstained, unstimulated, and WDTC1 Opto-antigen presenting beads stimulated cells (left to right). The percentage of live CD8+ cells and CD8/WDTC1 neoAg-loaded MHC pentamer positive cells are shown.
FIG. 19A-B. In vitro validation of the pooled predicted neoAgs immunogenicity using ELISpot IFNγ assay. A) Schematic of peptide pool, stimulation, and cell culture workflow for ELISpot assays. All 154 peptides were grouped into 15 peptide pools to stimulate PBMCs from 3 healthy human donors as shown in the illustrations. IFNy secreting cells were analyzed as spot-forming units (SFUs), indicative of immunogenicity. B) Quantification of IFNγ-secreting cells (SFU) obtained from ELISpot assay. Pools 2, 3, 5, 6, 9, and 12 produced at least 15 or higher SFU/10^5 cells from two different PBMCs. […] ConcA and DMSO served as positive and negative controls.
Healthy donor PBMCs were stimulated with 15 peptide pools (Supplementary Table 13) to expand the neoAg-specific CD8^+ T-cells followed by quantitative ELISpot assays (FIG. 19A) to measure immunogenicity. […] To ascertain the immunogenicity of individual peptides within each immunogenic pool. a deconvolution protocol (see Methods) was implemented (FIG. 10A). […] Three percent of MHC-I neoAgs not predicted to be highly immunogenic or recurrent (Others). 5% of the top 100 most immunogenic MHC-II predicted neoags, and 6% of the top 100 most recurrent MHC-II predicted neoags elicited an immunogenic response as assessed by ELISpot assays. Additionally. 18% of all of these elispot-reactive neoags were also predicted from the validation set (FIG. 9C). […]

Where [1] appears, read: IFNγ ELISpot, peptides marked Tested.
The mark [2] stands for this setting: IFNγ secretion in healthy donor PBMCs vs unexposed control cells.
Setting [3] is: IFNγ ELISpot, peptide-stimulated healthy donor PBMCs.
Setting [4] is: IFNγ ELISpot, peptide-stimulated healthy donor PBMCs, peptides grouped in 15 pools.
The mark [5] stands for this setting: IFNγ ELISpot, only peptides marked Tested.
[6] abbreviates: IFNγ ELISpot, healthy donor PBMCs stimulated with peptide pools.

Take RIPAVLRTEGEPLHT [compound 323]: the Elispot reactive result under setting [1] is listed as “Yes” and the Elispot reactive result under setting [2] is “Yes”.
Consider “FLADSGIDPV [WDTC1, WDTC1 neoAg peptide, HLA-A*02:01 restricted]”, for which, where the note is “healthy donor PBMCs”, the “ELISpot IFNγ reactivity (immunogenicity) of individual peptides” value is recorded as “most reactive (immunogenic); also recorded: immunogenic”.
Turning to FLQEVFQA [compound 5], the “ELISPOT result (positive Yes/No) for peptides marked Tested” value under setting [3] was “No”.
In the case of KTYMEMHY [compound 57], under setting [3], the “ELISPOT result (positive Yes/No) for peptides marked Tested” value is “No” and the “ELISPOT result for peptides marked Tested with ELISPOT (Yes/No)” value (“ELISPOT result … (Yes/No)” below) is “Yes”. Moreover, under setting [2], the Elispot reactive entry is given as “Yes”.
Turning to RAWRAGMPL [compound 153], the “ELISPOT result (positive Yes/No) for peptides marked Tested” value under setting [3] is recorded as “No”.
Turning to 336 (KEALFLQEVFQAERL) [compound 336], the Elispot reactive entry under setting [1] was “No”.
On the same count and under the same terms, next, 318 (LRGGVIQSTRRRRRA) [compound 318]: “No”; 334 (ALGLRILPPPLTSPS) [compound 334]: “No”.
As for LLNPVTMNK [compound 204], the Elispot reactive result (IFNγ ELISpot, peptide tested) is given as “No”.
For the substance LTFCTNATI [compound 200], the Elispot reactive entry (IFNγ ELISpot, peptide tested) is reported as “No”.
As for KPLWRKSPL [compound 137], under setting [3], the “ELISPOT result (positive Yes/No) for peptides marked Tested” value is listed as “No”.
In the case of IQKSWTATTY, the Elispot reactive result under setting [4] is recorded as “yes”.
For the substance FLAPCNFYL [compound 16], the Elispot reactive entry (IFNγ ELISpot, peptide tested) was “No”.
Still for that read-out and setting: the result for SMMPPPPAL [compound 2] reads “No”.
With FQVHFLKSGGLPLVL [compound 221], the Elispot reactive entry under setting [5] is on record as “Yes” and the Elispot reactive entry under setting [2] is reported as “Yes”.
Take LAYWEKREAW [compound 177]: under setting [3], the “ELISPOT result (positive Yes/No) for peptides marked Tested” value was “No”.
On to ASLAHSDNF [compound 106], for which the “ELISPOT result (positive Yes/No) for peptides marked Tested” value under setting [3] was “No”. For the setting “only neoAgs marked Tested with ELISPOT”, the “ELISPOT positive” value is recorded as “No”.
RVPAHASTSI: the Elispot reactive entry under setting [4] is reported as “yes”.
220 (PKMQVTITLTSPIIR) [compound 220]: under setting [5], the Elispot reactive result is “No”.
For the substance SPMITRIL [compound 210], the Elispot reactive entry (IFNγ ELISpot, peptide tested) is recorded as “No”.
Same read-out and setting: the result for RLYKYDHNFV [compound 213] reads “No”.
With SQNWGSLPL [compound 164], the “ELISPOT result (positive Yes/No) for peptides marked Tested” value under setting [3] is on record as “No”.
As to VVHKKRGLF [compound 127], the Elispot reactive entry under setting [1] is listed as “No”.
Take RPLCSSLGPL [compound 15]: the Elispot reactive entry (IFNγ ELISpot, peptide tested) is given as “No”.
For LEVMLLNMGYRITGL, the Elispot reactive entry under setting [6] was “yes”.
WLPKMPPFV [compound 163]: the “ELISPOT result (positive Yes/No) for peptides marked Tested” value under setting [3] is given as “Yes”. Further, the Elispot reactive entry under setting [2] is listed as “Yes”.
For the substance FLMDGFDEL [compound 11], for the setting “IFNγ ELISpot, peptide tested”, the Elispot reactive entry is reported as “No”.
With 332 (GVRILKLCSKVSFRV) [compound 332], the Elispot reactive entry under setting [1] is “No”.
In the case of KLYEAVPQL [compound 159], the “ELISPOT result (positive Yes/No) for peptides marked Tested” value under setting [3] is reported as “No”.
As to FLIDDNFKV, under setting [4], the Elispot reactive entry is recorded as “yes”.
On to YVAIRPLPY [compound 173], for which the “ELISPOT result (positive Yes/No) for peptides marked Tested” value under setting [3] is reported as “No”.
With GMVPLIIPV [compound 116], the Elispot reactive result under setting [1] is “No”.
For the substance IAFSQLIGM [compound 167], the “ELISPOT result (positive Yes/No) for peptides marked Tested” value under setting [3] was “No”.
Regarding SINVLCVRASLIEKL, the Elispot reactive result under setting [6] is recorded as “yes”.
Turning to YMMDDLELI [compound 1], the Elispot reactive result under setting [5] is given as “No”.
Still for that read-out and setting: next, 222 (KTGLQLLRNHIEELK) [compound 222]: “No”.
In the case of 233 (RHVIKVLLGRKVNWH) [compound 233], the Elispot reactive result under setting [5] is listed as “No” and the Elispot reactive entry under setting [1] was “No”.
With RSAFPSRSL [compound 126], the Elispot reactive result under setting [1] is “No” and the Elispot reactive result (IFNγ ELISpot, only peptides marked Elispot tested = Yes) is “No”.
For 240 (SINVLCVRASLIEKL) [compound 240], the “ELISpot result (positive response) for peptides tested with ELISpot” value (IFNγ ELISpot, healthy donor PBMCs) was “No”. For the same substance, under setting [5], the Elispot reactive entry is reported as “No”.
HPARHLCRL [compound 208]: where the note is “IFNγ ELISpot, peptide tested”, the Elispot reactive entry is on record as “No”.
For MSSIWGTMF [compound 140], the “ELISPOT result (positive Yes/No) for peptides marked Tested” value under setting [3] is on record as “No”.
Regarding LSNVAPPAF, the Elispot reactive result under setting [4] is recorded as “yes”.
Take SQVWTAATLR [compound 115]: the Elispot reactive result under setting [1] is recorded as “No”.
With LSSPFREQM [compound 38], under setting [5], the Elispot reactive entry is reported as “No”. Further, the “ELISPOT result (positive Yes/No) for peptides marked Tested” value under setting [3] is “No”.
For SQKNITPAI [compound 122], the Elispot reactive entry under setting [1] was “No”.
The same measure, in the same setting: next, 250 (TVEMRRWWTLVMEWK) [compound 250]: “No”.
With SLVRLSSCVPV [compound 4], the Elispot reactive entry (IFNγ ELISpot, peptide tested) is recorded as “No”.
Turning to MLLRLNLRK [compound 29], the Elispot reactive result runs as follows: under setting [5], “Yes”; under setting [2], “Yes”. Moreover, under setting [3], the “ELISPOT result (positive Yes/No) for peptides marked Tested” value is on record as “Yes”.
Take VMANVLTLNL [compound 157]: the “ELISPOT result (positive Yes/No) for peptides marked Tested” value under setting [3] was “Yes”. Also, the Elispot reactive entry under setting [2] is “Yes”.
As to GLLHAVQEKL [compound 165], the “ELISPOT result (positive Yes/No) for peptides marked Tested” value under setting [3] is on record as “No”.
Consider RIPAVLRTEGEPLHT, for which, under setting [4], the Elispot reactive entry is given as “yes”.
234 (QLARFFPITPPVWHI) [compound 234]: the Elispot reactive result reads like this: under setting [5], “No”; under setting [1], “No”.
As to KRAFIHTPR [compound 131], under setting [3], the “ELISPOT result (positive Yes/No) for peptides marked Tested” value is recorded as “No”.
Consider 219 (IDNIKRNHNLALGRQ) [compound 219], for which the Elispot reactive entry under setting [5] was “No”.
Regarding RTRSAWGDW [compound 141], under setting [3], the “ELISPOT result (positive Yes/No) for peptides marked Tested” value was “No”.
For SLINLTWTA [compound 66], the “ELISPOT result … (Yes/No)” value under setting [3] is given as “No”.
Turning to 224 (LINIHHRKNPLLPMR) [compound 224], the Elispot reactive entry under setting [5] is given as “No”.
Still for that read-out and setting: next, 230 (SLDNVLRTMLRRFAR) [compound 230]: “No”.
Still for that read-out and setting: next, 236 (FEEIIKNDGALLKKK) [compound 236]: “No”.
On to KPIAGRHTL [compound 8], for which the Elispot reactive entry (IFNγ ELISpot, peptide tested) is “No”.
For KVDTHHLQV [compound 133], the “ELISPOT result (positive Yes/No) for peptides marked Tested” value under setting [3] was “No”.
Consider FLIDDNFKV [SEQ ID NO 10], for which, under “healthy donor PBMCs, listed as TTLL10”, the “ELISpot IFNγ reactivity (immunogenicity) of individual peptides” value was “most reactive (immunogenic); also recorded: immunogenic”.
Consider RLSCAPPPI, for which the Elispot reactive entry under setting [4] is given as “yes”.
With KADQSESSL [compound 123], the Elispot reactive result under setting [1] is “No”.
Same read-out and setting: next, 324 (FGILNVLEFSSDRKK) [compound 324]: “No”.
With RSVLEEMGL [compound 58], under setting [3], the “ELISPOT result (positive Yes/No) for peptides marked Tested” value is reported as “No” and the “ELISPOT result … (Yes/No)” value is “No”.
For the substance IAQPSTSSL [compound 28], the Elispot reactive result under setting [5] is “No” and the Elispot reactive result under setting [1] is “No”.
Take VPACSHVPM [compound 202]: for the setting “IFNγ ELISpot, peptide tested”, the Elispot reactive entry is on record as “No”.
As for HNVQGFHPY [compound 178], the “ELISPOT result (positive Yes/No) for peptides marked Tested” value under setting [3] is listed as “No”.
Regarding RPVRGRGSL [compound 14], the Elispot reactive result (IFNγ ELISpot, peptide tested) is “No”.
311 (KSLVRLSSCVPVALM) [compound 311]: the Elispot reactive result under setting [1] was “No”. Also, the “ELISpot result (positive yes/no)” value (peptides marked Tested with ELISpot) was “No”.
